This is an account of results in US11517568B2, “Compounds and methods for treating nematode infections” (The Governing Council of The University of Toronto, priority 2018, dated 2022).

Read-outs that look alike come from different tables or passages of the source.

Data set [1] deals with wild type fourth-stage C. elegans larvae (L4s). Kind of data set: Locomotory defects (coiled and/or paralysis) in wild type fourth-stage C. elegans larvae on solid substrate. The data set is classed as in vivo, Caenorhabditis elegans. The settings on record: for Activity (%): percent of animals that show coiled and/or paralysis: 60 μM, after 60 min on solid substrate, L4 C. elegans. Here is the method:
A preliminary first round of SAR analyses using analogs of exemplary compound Ia was performed and the analogs' ability to induce locomotory defects in wild type fourth-stage C. elegans larvae (L4s) was tested.
If phenotype is observed, a dose-response analysis is performed.

In a further data set the test system is L3 animals. Kind of data set: Abnormal locomotory behaviour of L3 animals on solid agar (extended SAR). The data set is classed as in vivo, Caenorhabditis elegans. The settings on record: for % any phene 1 h (conc.) 3.75 / % any phene 6 h (conc.) 3.75 / % any phene 24 h (conc.) 3.75: 3.75 uM; for % any phene 1 h (conc.) 3.75 / % any phene 1 h (conc.) 15 / % any phene 1 h (conc.) 60: 1 h exposure; for % any phene 1 h (conc.) 3.75 / % any phene 6 h (conc.) 3.75 / % any phene 24 h (conc.) 3.75 / % any phene 1 h (conc.) 15 / % any phene 6 h (conc.) 15 / % any phene 24 h (conc.) 15 / % any phene 1 h (conc.) 60 / % any phene 6 h (conc.) 60 / % any phene 24 h (conc.) 60: L3, mean of 4 replicates; for % any phene 6 h (conc.) 3.75 / % any phene 6 h (conc.) 15 / % any phene 6 h (conc.) 60: 6 h exposure; for % any phene 24 h (conc.) 3.75 / % any phene 24 h (conc.) 15 / % any phene 24 h (conc.) 60: 24 h exposure; for % any phene 1 h (conc.) 15 / % any phene 6 h (conc.) 15 / % any phene 24 h (conc.) 15: 15 uM; for % any phene 1 h (conc.) 60 / % any phene 6 h (conc.) 60 / % any phene 24 h (conc.) 60: 60 uM; for pest or weed control at 3.75 µM / pest or weed control at 15 µM / pest or weed control at 60 µM: Caenorhabditis elegans. Here is the method:
20 animals were scored after either 1, 6 or 24 hours of exposure to drug (as indicated) per replicate. […] Data are reported as the mean % of animals with abnormal phenotype over 4 independent replicates.

The next data set relates to wild type C. elegans. As to the kind of experiment: Manual monitoring of locomotion phenotype of wild type C. elegans on solid agar containing the small molecule. It is filed as in vivo, Caenorhabditis elegans. The note with it: for locomotory phenotype induced: solid agar substrate. An excerpt: The ability of the 64 Egl hits to modulate the normal sinusoidal locomotion of wild type C. elegans was then examined. The animal's behaviour over the course of several hours was manually monitored while the animal moved atop a solid agar substrate containing the small molecule. Many different genes govern the sinusoidal locomotion of wild type C. elegans, but their mutation can lead to qualitatively distinct locomotory phenotypes.

Data set [2] relates to UNC-17 (VAChT), unc-17 mutant strains. It is filed as in vivo, Caenorhabditis elegans. The note with it: p=0.001.
In data set [3] the test system is C. elegans. Kind of data set: Forward genetic screens for mutants resisting early larval lethal effects. The data set is classed as in vivo, Caenorhabditis elegans. The settings on record: over 200,000 F1 and over 100,000 F2 animals screened. Here is the method:
Forward genetic screens were performed for mutants that can resist the early larval lethal effects of compound Ic and compound Id. Over 200,000 F1 animals and over 100,000 F2 animals from randomly mutagenized parents/grandparents were screened.

In another data set the test system is fish. As to the kind of experiment: Dose-response analysis in fish, cardiac defects. It is filed as in vivo.
Another data set relates to HEK293 cells. As to the kind of experiment: HEK293 cell proliferation, Celltiter Blue Cell Viability Assay. The settings on record: dose-response, 48 hours, triplicates. It is filed as cell-based. Here is the method: A cytotoxic formulation was used as positive control. Experiments were performed in triplicates on different days. […] Error bars indicate standard deviation.
In general terms: Resazurin is reduced to fluorescent resorufin, in cell work by metabolically active cells.

For data set [4], the system named is C. elegans. Kind of data set: Suppression of aldicarb-induced paralysis in C. elegans. The data set is classed as in vivo. The note with it: Caenorhabditis elegans. Here is the method:
Whether exemplary compound Ia can suppress the paralysis that is induced by aldicarb was tested. Aldicarb inhibits acetylcholinesterase, which normally catabolizes ACh at the synaptic cleft. […] Aldicarb treatment therefore results in excess ACh and paralyzes the animal due to excess muscle contraction. If exemplary compound Ia inhibits UNC-17 and results in lower levels of ACh at the synaptic cleft, then exemplary compound Ia should reduce aldicarb-induced paralysis.

[5] abbreviates: 1 h, read-out: % any phene 1 h (conc.) 3.75.
[6] abbreviates: 1 h, read-out: % any phene 1 h (conc.) 15.
Where [7] appears, read: 1 h, read-out: % any phene 1 h (conc.) 60.
The mark [8] stands for this setting: 6 h, read-out: % any phene 6 h (conc.) 3.75.
Where [9] appears, read: 6 h, read-out: % any phene 6 h (conc.) 15.
Where [10] appears, read: 6 h, read-out: % any phene 6 h (conc.) 60.
[11] abbreviates: 24 h, read-out: % any phene 24 h (conc.) 3.75.
The mark [12] stands for this setting: 24 h, read-out: % any phene 24 h (conc.) 15.
The mark [13] stands for this setting: 24 h, read-out: % any phene 24 h (conc.) 60.

For `O=[N+]([O-])c1ccc(N2CCN(CC3CC3)CC2)cc1` [Iq], the “Activity (%): percent of animals that show coiled and/or paralysis” value (“Activity (%): percent” for short) in data set [1] turned out to be 6% +/− 3.2. In addition, in the data set on L3 animals, the “% any phene 1 h (conc.) 3.75” value is on record as 0.0%, the “% any phene 6 h (conc.) 3.75” value was 5.0%, the “% any phene 24 h (conc.) 3.75” value came out at 0.0% and the “% any phene 1 h (conc.) 15” value is recorded as 4.2%. In the data set with L3 animals, the “% any phene 6 h (conc.) 15” value was 29.2%, the “% any phene 24 h (conc.) 15” value is 0.0%, the “% any phene 1 h (conc.) 60” value is 32.5% and the “% any phene 6 h (conc.) 60” value is 36.7%. Moreover, in the data set with L3 animals, the “% any phene 24 h (conc.) 60” value is given as 4.2%.

On to `N#Cc1ccc(N2CCN(CC3CCCC3)CC2)cc1` [Ip], for which the “Activity (%): percent” value in data set [1] was 41% +/− 7.4. In the data set with L3 animals, the “% any phene 1 h (conc.) 3.75” value stood at 0.8%, the “% any phene 6 h (conc.) 3.75” value is given as 0.0%, the “% any phene 24 h (conc.) 3.75” value is recorded as 0.0% and the “% any phene 1 h (conc.) 15” value worked out at 29.2%. In addition, in the data set with L3 animals, the “% any phene 6 h (conc.) 15” value came out at 10.0%, the “% any phene 24 h (conc.) 15” value was determined as 0.0%, the “% any phene 1 h (conc.) 60” value was 91.3% and the “% any phene 6 h (conc.) 60” value came out at 42.5%. Besides, in the data set on L3 animals, the “% any phene 24 h (conc.) 60” value is recorded as 62.5%.

`O[C@@H]1CCCC[C@H]1N1CCC(c2ccccc2)CC1` (racemic) [Vesamicol, reference compound]: in data set [1], the “Activity (%): percent” value stood at 6% +/− 0.1. Further, the pest or weed control at 3.75 µM in the data set on L3 animals (setting [5]), with L3 animals (setting [8]) and in the data set on L3 animals (setting [11]) was 0% in each case. The values for the pest or weed control at 15 µM with L3 animals (setting [6]), in the data set on L3 animals (setting [9]) and in the data set with L3 animals (setting [12]) were 0%, 0.8% and 0%, respectively. Further, the results for the pest or weed control at 60 µM in the data set on L3 animals (setting [7]), in the data set with L3 animals (setting [10]) and in the data set with L3 animals (setting [13]) were 11.7%, 1.7% and 0%, respectively. For the same compound, the locomotory phenotype induced entry in the data set with wild type C. elegans is “jerky-unc and coiling, but only at concentrations close to its limit of solubility”. Moreover, the “sensitivity of unc-17(md414) (C370Y) mutant” value in data set [2] was “partially resistant”.

In the case of `N#Cc1ccc(N2CCN(CC3CCCCC3)CC2)cc1` [Ik], the “Activity (%): percent” value in data set [1] is reported as 61% +/− 5.0. Moreover, in the data set with L3 animals, the “% any phene 1 h (conc.) 3.75” value was 8.3%, the “% any phene 6 h (conc.) 3.75” value is 15.0%, the “% any phene 24 h (conc.) 3.75” value amounted to 0.0% and the “% any phene 1 h (conc.) 15” value came to 45.8%. Moreover, in the data set with L3 animals, the “% any phene 6 h (conc.) 15” value turned out to be 37.5%, the “% any phene 24 h (conc.) 15” value is on record as 23.3%, the “% any phene 1 h (conc.) 60” value came out at 91.7% and the “% any phene 6 h (conc.) 60” value is given as 98.3%. Further, the “% any phene 24 h (conc.) 60” value in the data set with L3 animals stood at 100.0%.

As to `CC1CCC(N2CCN(c3ccc([N+](=O)[O-])cc3)CC2)CC1` (centres unmarked) [Ib], the “Activity (%): percent” value in data set [1] stood at 87% +/− 3.7. The pest or weed control at 3.75 µM came out at 3.3% in the data set on L3 animals (setting [5]), 0% with L3 animals (setting [8]) and 0% with L3 animals (setting [11]). Besides, the pest or weed control at 15 µM was determined as 97.5% in the data set with L3 animals (setting [6]), 93.3% in the data set with L3 animals (setting [9]) and 73.3% in the data set with L3 animals (setting [12]). In addition, the pest or weed control at 60 µM in the data set on L3 animals (setting [7]), in the data set with L3 animals (setting [10]) and with L3 animals (setting [13]) was 100% in each case.

Regarding `O=[N+]([O-])c1ccc(N2CCN(CC3CC4C=CC3C4)CC2)cc1` (centres unmarked) [Compound Id], the “Activity (%): percent” value in data set [1] is listed as 0.00%. Moreover, in the data set with L3 animals, the “% any phene 1 h (conc.) 3.75” value came out at 19.2%, the “% any phene 6 h (conc.) 3.75” value was 5.8%, the “% any phene 24 h (conc.) 3.75” value turned out to be 0.0% and the “% any phene 1 h (conc.) 15” value worked out at 65.5%. In the data set with L3 animals, the “% any phene 6 h (conc.) 15” value came out at 36.7%, the “% any phene 24 h (conc.) 15” value worked out at 45.0%, the “% any phene 1 h (conc.) 60” value worked out at 95.8% and the “% any phene 6 h (conc.) 60” value came to 100.0%. Also, the “% any phene 24 h (conc.) 60” value in the data set with L3 animals was 95.8%. Moreover, the locomotory phenotype induced entry in the data set with wild type C. elegans was “‘jerky-unc’ phenotype”. The “mutants resisting early larval lethal effects” value with C. elegans [3] is listed as “No mutants that could resist the lethal effects”.

For the compound `O=[N+]([O-])c1ccc(N2CCN(CC3CC=CCC3)CC2)cc1` (centres unmarked) [Ie], the “Activity (%): percent” value in data set [1] is given as 19% +/− 8.0. Also, in the data set with L3 animals, the “% any phene 1 h (conc.) 3.75” value is listed as 15.0%, the “% any phene 6 h (conc.) 3.75” value was determined as 0.0%, the “% any phene 24 h (conc.) 3.75” value was 0.0% and the “% any phene 1 h (conc.) 15” value turned out to be 45.0%. In the data set with L3 animals, the “% any phene 6 h (conc.) 15” value worked out at 56.7%, the “% any phene 24 h (conc.) 15” value was determined as 0.0%, the “% any phene 1 h (conc.) 60” value was determined as 94.2% and the “% any phene 6 h (conc.) 60” value turned out to be 80.8%. Further, the “% any phene 24 h (conc.) 60” value in the data set on L3 animals was 57.5%. The locomotory phenotype induced entry in the data set with wild type C. elegans is “‘severe’ snake-like coiler phenotype and paralysis”. Besides, the “cardiac defects in fish” value in the data set with fish is “strongest cardiac defects”.

As for `O=[N+]([O-])c1ccc(N2CCN(CC3CCCCC3)CC2)cc1` [Compound Ia], the “Activity (%): percent” value in data set [1] is 90% +/− 5.4. The EC50 was 12.8 µM in data set [1] (Caenorhabditis elegans, read-out: EC50 (coiled and/or paralysis, dose-response)) and 4.81 µM with C. elegans [4]. The pest or weed control at 3.75 µM came to 42.5% in the data set with L3 animals (setting [5]), 22.5% in the data set on L3 animals (setting [8]) and 0% in the data set on L3 animals (setting [11]). For the same compound, the pest or weed control at 15 µM in the data set on L3 animals (setting [6]) came out at 91%; in the data set on L3 animals (setting [9]), 64.2%; in the data set on L3 animals (setting [12]), 34.2%. For the same compound, the pest or weed control at 60 µM is 100% in the data set on L3 animals (setting [7]), 100% in the data set on L3 animals (setting [10]) and 80% in the data set on L3 animals (setting [13]). The “effect on HEK293 cell proliferation” value with HEK293 cells is “no effect”. Further, the “potency for inducing locomotory defects in worms relative to vesamicol” value with wild type C. elegans (compared with vesamicol) is reported as “more than 30 times”. For the same compound, the “cardiac defects in fish” value in the data set with fish was “weakest cardiac defects”.

Regarding `c1ccc(N2CCN(CC3CCCCC3)CC2)cc1` [Ii], the “Activity (%): percent” value in data set [1] amounted to 19% +/− 8.1. Besides, in the data set on L3 animals, the “% any phene 1 h (conc.) 3.75” value was found to be 16.2%, the “% any phene 6 h (conc.) 3.75” value amounted to 0.0%, the “% any phene 24 h (conc.) 3.75” value stood at 0.0% and the “% any phene 1 h (conc.) 15” value is recorded as 39.2%. For the same compound, in the data set with L3 animals, the “% any phene 6 h (conc.) 15” value came to 0.8%, the “% any phene 24 h (conc.) 15” value stood at 0.0%, the “% any phene 1 h (conc.) 60” value came to 84.2% and the “% any phene 6 h (conc.) 60” value came to 44.2%. Besides, the “% any phene 24 h (conc.) 60” value with L3 animals stood at 20.5%.
